Source: patent publication US20260248805A1, “DIAMINOPHENOTHIAZINE FOR THE TREATMENT OF MICROVASCULAR BRAIN DISEASE” (priority 2023, published 2026)
“Also recorded” adds a separate entry of the source.

Key:
[1] = test system: white matter hyperintensities (microvascular pathology); assay: Phase 3 clinical trials of LMTM in AD: MRI total lesion volume (TLV) of white matter hyperintensities; type: in vivo, human; conditions: for estimate: difference in increase in TLV, LMTM monotherapy vs LMTM in combination with AD symptomatic treatments: FIGS. 7A and B, no unit printed at the table; for estimate: difference in increase in Total Lesion volume (TLV), LMTM monotherapy vs LMTM in combination with symptomatic treatments for AD: AD patients, MRI; for exposure dependence of rate of progression of microvascular pathology: low dose monotherapy, FIG. 6, TLV change from baseline
Description: The design and results from two large Phase 3, double-blind, controlled, randomised clinical trials of hydromethylthionine in probable AD were described elsewhere. Study TRx-237-015 (clintrials.gov NCT01689246), involved 890 mild/moderate AD patients and study TRx-237-005 (clintrials.gov NCT01689233), had 800 patients with mild AD meeting NIA/AA diagnostic criteria for probable AD. Eligible patients were aged less than 90 years. Patients were excluded if they had: a recent history of poorly controlled hypertension, or clinically significant cardiovascular disease (such as hospitalization for acute coronary syndrome or symptoms consistent with angina pectoris), or a modified Hachinski ischemic score of >4. Patients were also excluded if significant vascular pathology was seen on brain MRI, including large confluent white matter hyperintensities that would lead to a diagnosis other than probable AD. A detailed list of all inclusion and exclusion criteria for both trials is available in the supplementary materials. FDG-PET was performed at baseline in only a subgroup of TRx-237-015 subjects (n=198) but was required for all participants in TRx-237-005 if the appropriate imaging facilities were available at the study site. Of 1690 participants enrolled in both studies, 794 had available FDG-PET scans at baseline.
In this trial only GE, Siemens, or Philips (1.5-Tesla and 3.0-Tesla) machines were used to reduce the variability in the imaging data. The MRI sequences utilised in this protocol were based on the ADNI protocol. The recommended range of acquisition parameters for individual sequences for GE, Siemens, and Philips MRI machines were developed after technical evaluation forms from all sites. The following sequences were included: FLAIR: This sequence allows assessment of other clinically significant focal intracranial pathology and for detection and quantification of WMHs; Unenhanced T1-weighted, 3-dimensional sequence (e.g., MP RAGE or SPGR) were used for evaluation of the whole brain, ventricular and hippocampal volumes and WMH.
Brain MRI derived WMHs were quantified using the Lesion Growth Algorithm (LGA) part of the Lesion Segmentation Toolbox (LST [28]) which is an automated method for extracting WMH and has been validated in various datasets. This algorithm uses T1 and FLAIR MR images to classify voxels, with T1 images used to segment tissue classes white matter (WM), grey matter (GM), cerebrospinal fluid (CSF) and fluid attenuated inversion recovery (FLAIR) imaging used to determine areas of hyperintense signal (i.e., WMH). WMH data are provided as whole-brain total lesion volume (TLV), measured in cm^3.
Exposure dependence groups were defined in accordance with the methods described in more detail in WO2020/020751 discussed hereinbefore.

Alzheimer's disease = conditions: monotherapy vs combination with AChEIs and/or memantine; cited from earlier work
[2] = compared with the MT+ form; cited from earlier work
tau aggregation = tau aggregation (Homo sapiens, UniProt P10636); conditions: in vitro (LMTM: in vitro and in vivo); cited from earlier work
[3] = cited from earlier work
[4] = test system: PHFs from Alzheimer's disease brain tissue; conditions: cited from earlier work
tau pathology = conditions: transgenic mouse tau models; brain concentrations consistent with human oral dosing; cited from earlier work

tau aggregation, sequence (P10636 whole entry): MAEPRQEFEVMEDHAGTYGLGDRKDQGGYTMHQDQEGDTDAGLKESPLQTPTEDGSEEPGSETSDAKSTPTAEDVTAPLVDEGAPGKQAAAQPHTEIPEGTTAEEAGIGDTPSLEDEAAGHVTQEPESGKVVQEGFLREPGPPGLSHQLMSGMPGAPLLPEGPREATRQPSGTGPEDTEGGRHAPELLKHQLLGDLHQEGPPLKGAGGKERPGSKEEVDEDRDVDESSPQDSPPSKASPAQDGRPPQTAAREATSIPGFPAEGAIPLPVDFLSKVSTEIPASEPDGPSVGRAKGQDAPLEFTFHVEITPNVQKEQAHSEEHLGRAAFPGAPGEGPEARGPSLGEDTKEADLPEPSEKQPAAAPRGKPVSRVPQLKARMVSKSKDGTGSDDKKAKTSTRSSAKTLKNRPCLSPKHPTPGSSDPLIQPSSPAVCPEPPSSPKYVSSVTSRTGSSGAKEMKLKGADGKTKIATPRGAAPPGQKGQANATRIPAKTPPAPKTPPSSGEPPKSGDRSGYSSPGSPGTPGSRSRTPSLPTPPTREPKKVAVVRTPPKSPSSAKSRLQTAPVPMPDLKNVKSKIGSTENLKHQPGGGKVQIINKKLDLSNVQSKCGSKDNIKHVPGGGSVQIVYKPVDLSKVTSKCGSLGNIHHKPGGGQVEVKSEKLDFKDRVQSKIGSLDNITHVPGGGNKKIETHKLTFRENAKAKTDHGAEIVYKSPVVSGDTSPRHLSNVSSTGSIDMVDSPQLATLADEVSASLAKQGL

SMILES	estimate: difference in increase in TLV, LMTM monotherapy vs LMTM in combination with AD symptomatic treatments ([1]; 4 mg b.i.d. (low dose group))	estimate: difference in increase in Total Lesion volume (TLV), LMTM monotherapy vs LMTM in combination with symptomatic treatments for AD ([1]; 4 mg b.i.d. (low dose)) [mL]	estimate: difference in increase in Total Lesion volume (TLV), LMTM monotherapy vs LMTM in combination with symptomatic treatments for AD ([1]; 100 mg b.i.d. (high dose)) [mL]	estimate: difference in increase in TLV, LMTM monotherapy vs LMTM in combination with AD symptomatic treatments ([1]; 100 mg b.i.d., high dose (mean of high doses, 150-250 mg/day))	increase in Total Lesion volume, monotherapy vs combination with symptomatic treatments for AD ([1]; high dose and low dose groups, statistically significant difference)	exposure dependence of rate of progression of microvascular pathology [1]	treatment benefit in AD according to the trial criteria (Alzheimer's disease)	absorption [2]	tau aggregation inhibitor activity (tau aggregation)	pharmaceutic properties: solubility and pKa [3]	dissolution of PHFs [4]	tau pathology and behavioural deficits (tau pathology)
CN(C)c1ccc2c(c1)Sc1cc(N(C)C)ccc1N2.CS(=O)(=O)O.CS(=O)(=O)O [LMTM, N,N,N′,N′-tetramethyl-10H-phenothiazine-3,7-diaminium bis(hydromethanesulfonate)]	−0.3494	-0.3494	-0.3865	−0.3865	less increase in Total Lesion volume; also recorded: less increase in TLV	exposure-dependent difference in rate of progression of microvascular pathology	restricted to patients taking LMTM as monotherapy	not subject to the absorption limitations of the MT^+ form	retains TAI activity in vitro and in vivo	superior pharmaceutic properties in terms of solubility and pKa		
CN(C)c1ccc2c(c1)Sc1cc(N(C)C)ccc1N2 [LMT, N3,N3,N7,N7-tetramethyl-10H-phenothiazine-3,7-diamine]						exposure-dependent reduction in progression of microvascular pathology						
CN(C)c1ccc2nc3ccc(=[N+](C)C)cc-3sc2c1 [MT, Methylthioninium]									acts as a tau aggregation inhibitor in vitro		dissolves PHFs from Alzheimer's disease brain tissue	reduces tau pathology and associated behavioural deficits
